# Test: Solubility of acyclovir in the aqueous portion of the formulation, from propylene glycol/water solubility measurements
# Format: physicochemical
# Details: estimated from propylene glycol/water solubility measurements
# Description: Assuming that the electrolysis is 100% efficient, the expected proton generation is […] (0.4 mA×600 sec×6.2×10^18, coulomb, ÷[…]; assuming each electron generate one proton). Thus the electrolysis of water provides enough protons to ionize the soluble portion of the dose. Since the current density in the invented system is typical for iontophoresis, the rate of proton generation in this system can be realized in other iontophoretic systems. Because the coulombic dose in this iontophoretic system is at the low end of iontophoretic doses, larger quantities of protons could be generated for use in other applications.
smiles,measurement,value
Nc1nc2c(ncn2COCCO)c(=O)[nH]1 [Acyclovir],solubility of acyclovir in the aqueous portion of the formulation,~0.3 % by weight

# Source: US20080234629A1, “WATER ELECTROLYSIS TO FACILITATE DRUG DELIVERY BY IONTOPHORESIS” (priority 2007, published 2008)
